Laboratory results as given in US20130150598A1, “USE OF 25-HYDROXY-VITAMIN D3 TO AFFECT HUMAN MUSCLE PHYSIOLOGY” (DSM IP ASSETS B.V., priority 2008, published 2013).

Columns and labels:
[1] = test system: gastrocnemius muscle gene expression (mRNA); experiment: Gene chip analysis of gastrocnemius muscle in hindlimb unloaded (tail suspension) skeletal muscle atrophy model; type: in vivo, BalbC mice; details: for Differentially expressed muscle genes compared to HU: selected skeletal muscle genes
Source text: Initially this model was established in rats for simulating spaceflight in humans and is commonly used in other scientific fields to study the loss of skeletal muscle mass or bone. The results are considered indicative of human conditions such as sarcopenia (degenerative loss of skeletal muscle mass and strength during the process of ageing) or immobilization of skeletal muscle (e.g. after prolonged bed rest due to fractures, surgery or trauma). Methods For our study, nine month old BalbC female mice were randomized at the beginning of the study into four groups with 10 animals per group • 1. […] The animals were placed in special cages for duration of seven days; all mice were housed separately and had free access to feed and water ad libidum. […] At the end of the study the gastrocnemius muscle was taken out and directly frozen in liquid nitrogen for further analysis. […] Total RNA was isolated using the commonly used Trizol protocol. The RNA was quantified by using spectrophotometric analysis. The integrity of total RNA samples was also assessed qualitatively on an Agilent 2100 Bioanalyzer. RNA was then prepared for the one cycle cDNA synthesis. A poly-A RNA control is used for this step to provide exogenous positive controls to monitor the entire eukaryotic target labelling process. The first cDNA synthesis is done, and after the second strand cDNA synthesis the cDNA is cleaned up of double-stranded cDNA. A biotin labelled cRNA is then synthesised, cleaned up and quantified using a spectrophotometer at 260/280 nm. It is important that cRNA target is fragmented before hybridization onto a GeneChip probe arrays to obtain optimal assay sensitivity. After fragmentation the probes are hybridized on the chips (Affymetrix Mouse 430-2 chips). The chips are washed and stained in the fluidics station of Affymetrix and scanned in the gene chip scanner. The data is then transferred from the scanner for further analysis using software from Genedata (Expressionist 5.0: […] Analyst). Data interpretation and pathway analysis was done with the online version of the GeneGo Metacore package ([…] evaluates microarray data for quality issues and flags problematic measurements. It provides a set of normalization algorithms and validated condensing methods to automatically pre-process and summarize raw microarray data for subsequent statistical analysis.

C57BL/6J mice = experiment: Muscle hypertrophy model (gastrocnemius removal) and endurance exercise capacity test; type: in vivo
Source text: The objective of this study was to test the effects of 25-OH D3 in a muscle hypertrophy model and in an endurance exercise capacity test in C57BL/6J mice. It is recognized in the art that removal of the gastrocnemius muscle induces compensatory hypertrophy in the soleus and plantaris muscles by multiple mechanisms leading to improved muscle strength and leg power.
Two groups of 10 animals were anesthetized and the left hindlimb of the animals was fixed. All animals received an analgesic. A small incision was made through the skin over the gastrocnemius muscle. The complete gastrocnemius muscle and the tendons were exposed. Both heads of the gastrocnemius muscle were carefully dissected from the underlying intact muscles and care was taken not to rupture nerves and vessels. The skin was closed with a silk suture and the animals were returned into the cages. After recovering from anesthesia the animals could move directly without problems in their cages. Animals were treated for three weeks by gavage with 25-OH D3 at a daily dosage of 50 μg/kg and the control group received vehicle. At the end of the study endurance exercise capacity of all animals was tested on a rodent treadmill.

[2] = test system: healthy, postmenopausal women; experiment: Clinical trial: muscle function (repeated sit-to-stand, timed up & go); type: in vivo, human; details: for Muscle function, repeated sit-to-stand, change vs. baseline / Muscle function, timed-up-and-go, change vs. baseline: daily 20 μg per day / weekly 140 μg per week, oral
Source text: (§1) Each group included five subjects. They are followed for four months in Zurich, Switzerland during the winter.
(§2) Equimolar quantities of both substances were investigated. […] As the maximum pre-existing baseline concentration of 25-OH D3 will be 50 nmol/L, it is not anticipated that subjects will approach the range where disturbance in Ca^2+ homeostasis has been observed.
(§3) Each dosage is consumed orally at breakfast. The duration of the study is four months for the “Daily” and “Weekly” groups. Subjects enrolled in the “Bolus” group consume orally a single dosage at the second study visit.
(§4) Muscle strength and function were assessed by the following standard performance tests: knee flexor and extensor strength, repeated sit-to-stand test and timed up & go (TUG) in Week 1 on visit 2 (baseline) and at study end on visit 15. Muscle strength was measured as knee extensor and flexor in Newtons (kiloponds). TUG is a measure of functional mobility including muscle strength, gait speed, and balance and is assessed in seconds. The repeated sit-to-stand is a functional test and measured in seconds.

[3] = test system: healthy, postmenopausal women; experiment: Clinical trial: muscle strength (knee extensor and flexor strength); type: in vivo, human; details: 4 months; for Muscle strength, knee extension (best value), change vs. baseline / Muscle strength, knee extension (mean value), change vs. baseline / Muscle strength, knee flexion (best value), change vs. baseline / Muscle strength, knee flexion (mean value), change vs. baseline: daily 20 μg per day / weekly 140 μg per week, oral
Source text: as §1, §2, §3, §4

[4] = at the safe upper level of 250 μg/day; cited from earlier work
[5] = GLM least square means, % time needed adjusted for baseline function, age, BMI, 4 months
[6] = GLM least square means, % improvement adjusted for baseline strength, age, BMI

C=C1CC[C@H](O)C/C1=C/C=C1\CCC[C@]2(C)[C@@H]([C@H](C)CCCC(C)(C)O)CC[C@@H]12 [25-OH D3, 25-hydroxyvitamin D3]
Share of the group's differentially expressed probe sets also differentially expressed in 25-OH D3+Vitamin D3 group ([1]; Venn overlap, FIG. 2 / FIG. 3): ~61% | Differentially expressed muscle genes compared to HU [1]: Desmin; dystonin; myocyte enhancer factor 2A; | Soleus-Plantaris muscle weight/body weight (C57BL/6J mice; 50 μg/kg/day gavage, 3 weeks, control 1.82): 1.94 mg/g | Soleus wet weight (C57BL/6J mice; 50 μg/kg/day gavage, 3 weeks, control 5.25): 6.37 mg | Plantaris wet weight (C57BL/6J mice; 50 μg/kg/day gavage, 3 weeks, control 31.68): 33.24 mg | Muscle cross-sectional area (C57BL/6J mice; computer tomography, 50 μg/kg/day, 3 weeks, control 19.90): 20.98 mm^2 | Total leg cross-sectional area (C57BL/6J mice; computer tomography, 50 μg/kg/day, 3 weeks, control 22.78): 24.04 mm^2 | Skeletal mass by computer tomography of muscle and total leg area (C57BL/6J mice; in words): increases skeletal mass | Soleus-plantaris muscle weight/body weight ratio compared to control (C57BL/6J mice; in words): increased | Wet weight of the soleus and plantaris muscles compared to control animals (C57BL/6J mice; in words): increased | Endurance exercise capacity compared to control mice (C57BL/6J mice; in words, longer running distance and time): increased endurance exercise capacity | Running time (C57BL/6J mice; rodent treadmill, 50 μg/kg/day, 3 weeks, control 37.6): 41.0 min | Running distance (C57BL/6J mice; rodent treadmill, 50 μg/kg/day, 3 weeks, control 986.0): 1078.4 m | Muscle function, repeated sit-to-stand, change vs. daily/weekly Vitamin D3 [2, 5]: 13.9% | Muscle function, timed-up-and-go, change vs. daily/weekly Vitamin D3 [2, 5]: 8.4% | Muscle function, repeated sit-to-stand, change vs. baseline ([2]; 4 months): 0.63 s | Muscle function, timed-up-and-go, change vs. baseline ([2]; 4 months): 0.27 s | Likelihood of maintaining or improving lower extremity strength and function compared to Vitamin D3 ([2]; unadjusted analysis across four lower extremity tests): 2.8 fold | Muscle strength, knee extension (best value), change vs. daily/weekly Vitamin D3 [3, 6]: 17.6% | Muscle strength, knee extension (mean value), change vs. daily/weekly Vitamin D3 [3, 6]: 17.0% | Muscle strength, knee flexion (best value), change vs. daily/weekly Vitamin D3 [3, 6]: 4.7% | Muscle strength, knee flexion (mean value), change vs. daily/weekly Vitamin D3 [3, 6]: 3.1% | Muscle strength, knee extension (best value), change vs. baseline [3]: 13.6 Newton | Muscle strength, knee extension (mean value), change vs. baseline [3]: 13.0 Newton | Muscle strength, knee flexion (best value), change vs. baseline [3]: 7.2 Newton | Muscle strength, knee flexion (mean value), change vs. baseline [3]: 7.9 Newton

C=C1CC[C@H](O)C/C1=C/C=C1\CCC[C@]2(C)[C@@H]([C@H](C)CCCC(C)C)CC[C@@H]12 [Vitamin D3, cholecalciferol]
Differentially expressed probe sets for genes against HU control group ([1]; 50 μg/kg/bw each, gavage twice, 7 days hindlimb unloading, Affymetrix Mouse 430-2): 385 | Number of the group's differentially expressed probe sets also differentially expressed in 25-OH D3+Vitamin D3 group ([1]; Venn overlap, FIG. 2 / FIG. 3): 177 | Share of the group's differentially expressed probe sets also differentially expressed in 25-OH D3+Vitamin D3 group ([1]; Venn overlap, FIG. 2 / FIG. 3): ~46% | Expression pattern Myosin, light chain kinase (Mylk) ([1]; gastrocnemius, microarray signal, HU control 749): 786 | Expression pattern Tropomyosin 1 (Tpm1) ([1]; gastrocnemius, microarray signal, HU control 1179): 2199 | Expression pattern Titin (Tnt) ([1]; gastrocnemius, microarray signal, HU control 11353): 11354 | Expression pattern Myomesin 1 (Myom 1) ([1]; gastrocnemius, microarray signal, HU control 84697): 99099 | Differentially expressed muscle genes compared to HU [1]: Desmin; myoneurin; tropomyosin 1, alpha; tropomyosin | Muscle function, repeated sit-to-stand, change vs. baseline ([2]; 4 months): 0.30 s | Muscle function, timed-up-and-go, change vs. baseline ([2]; 4 months): -0.46 s | Muscle strength, knee extension (best value), change vs. baseline [3]: −24.8 Newton | Muscle strength, knee extension (mean value), change vs. baseline [3]: −23.7 Newton | Muscle strength, knee flexion (best value), change vs. baseline [3]: 2.4 Newton | Muscle strength, knee flexion (mean value), change vs. baseline [3]: 3.6 Newton

Vitamin D
Blood concentration of 25-hydroxyvitamin D after ingestion as dietary supplement [4]: about 200 nmol/L
